Tests used:
Cavia porcellus = species: Cavia porcellus; assay: Compound was evaluated for antagonism of LTB4 effect on guinea pig lung strip contraction; type: functional
[1] = biological target: Leukotriene B4 receptor 1 (Homo sapiens, UniProt Q15722); assay: Binding affinity against human neutrophil Receptor.
Leukotriene B4 receptor = Leukotriene B4 receptor (Homo sapiens, UniProt Q9NPC1+Q15722); assay: LTB4-induced up-regulation of CD11b/CD18 in human neutrophils; type: functional

Sequence of Leukotriene B4 receptor 1 (Q15722 whole entry): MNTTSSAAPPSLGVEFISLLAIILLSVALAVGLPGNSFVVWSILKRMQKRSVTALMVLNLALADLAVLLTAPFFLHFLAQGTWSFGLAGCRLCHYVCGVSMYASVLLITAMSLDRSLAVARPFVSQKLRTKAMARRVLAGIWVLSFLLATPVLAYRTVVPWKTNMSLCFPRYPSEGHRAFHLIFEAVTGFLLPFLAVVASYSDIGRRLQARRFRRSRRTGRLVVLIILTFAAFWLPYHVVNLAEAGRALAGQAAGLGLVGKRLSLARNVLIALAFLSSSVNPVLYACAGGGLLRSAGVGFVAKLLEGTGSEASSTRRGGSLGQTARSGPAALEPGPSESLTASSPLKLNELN

CCCCc1cc(CC)c(OCCCCCC(C)(C)c2nn[nH]n2)cc1O
Kb (Cavia porcellus): 53 nM

CCCCCOc1cc(CC)c(OCCCCCC(C)(C)c2nn[nH]n2)cc1O
Kb (Cavia porcellus): 216 nM

CCc1cc(OC)c(O)cc1OCCCCCC(C)(C)c1nn[nH]n1
Kb (Cavia porcellus): 222 nM

CCOc1cc(CC)c(OCCCCCC(C)(C)c2nn[nH]n2)cc1O
Kb (Cavia porcellus): 264 nM

CCCCCCc1cc(CC)c(OCCCCCC(C)(C)c2nn[n-]n2)cc1O.[Na+]
Ki [1]: 28.4 nM
IC50 (Leukotriene B4 receptor): 878 nM
Kb (Cavia porcellus): 688 nM

CCCc1cc(CC)c(OCCCCCC(C)(C)c2nn[nH]n2)cc1O
Ki [1]: 5.53 nM
Kb (Cavia porcellus): 34 nM

CCc1cc(CC)c(OCCCCCC(C)(C)c2nn[n-]n2)cc1O.[Na+]
Ki [1]: 5.14 nM
IC50 (Leukotriene B4 receptor): 179 nM
Kb (Cavia porcellus): 167 nM

Reference: ChEMBL document CHEMBL1159191, “2-alkyl-4-ethyl-5-[6-methyl-6-(2H-tetrazol-5-yl)heptyloxy]phenol leukotriene B4 receptor antagonists” (Bioorg Med Chem Lett, 1995)
